Columns and labels:
inflammatory screens = experiment: Anti-inflammatory activity, general statements (oral activity, inflammatory screens); format: in vivo
Method: Such inflammatory agents typically include oxazolone, and the like. The reverse passive Arthus test offers another measure of the compound's utility in preventing an inflammatory response (Chang et al. Eur. J. Phar. 69:155-164 (1981)). Test compounds are typically administered intraperitoneally or orally. For intraperitoneal administration, the test compound can be given in dimethyl sulfoxide or in 0.5% methylcellulose 30 minutes prior to administration of the irritant. For oral administration, the test compound can be compounded into tablet or capsule form as well as dissolved in, for example, water or ethanol and swallowed prior to application of the irritant. Results can be expressed as the percent decrease in swelling in the compound-treated animals as compared to control animals that receive only the irritant.

plasma fibrinogen = experiment: Adjuvant arthritis, plasma fibrinogen inhibition in rats; format: in vivo, rat (male Sprague Dawley); conditions: po, rat; for ED (maximal inhibition) at 100 mg/kg: 0.3 to 100 mg/kg, read-out: AA (p.o.) Dose yielding max inhibition (100 mg/kg)
[1] = tested on: reverse passive Arthus reaction; experiment: Reverse Passive Arthus Reaction (RPA); format: in vivo, rat (male SD); conditions: ip, rat
Method: Male SD rats weighing between 200 and 300 g were used. Test compounds were dissolved in dimethyl sulfoxide and 1 ml/kg of this stock solution (100 mg/ml), on serial dilutions were injected intraperitoneally one hour before administration of the antigen or given orally. The animals were anesthetized inhalationally with isoflurane and then injected through the penile vein with 1 ml of a solution of 2.5 mg of Evan's blue dye and 5.0 mg of human serum albumin in 1 ml of saline. This treatment was followed immediately by intracutaneous injections of 0.075 ml of anti-human albumin diluted to contain 4.38 mg/ml of antibody at 2 sites opposite the midline back. Anesthesia was terminated and after three hours, the animals were sacrificed. The skin was removed and the blue stained areas cut out. The skin patches were soaked overnight in stoppered tubes containing 2 ml of 1N potassium hydroxide at 5° C. Then 9 ml of a mixture of five parts of a 1.2N phosphoric acid and thirteen parts of acetone were added to the tubes. The tube contents were agitated and centrifuged, and the absorbance measured at 620 nm. The data were calculated as inhibition of blueing by test compound compared to control animals receiving only antigen and antibody.

[2] = tested on: oxazolone-induced ear edema; experiment: Inhibition of ear edema caused by oxazolone; format: in vivo, mouse (CF-1); conditions: given orally, mouse, 24 h; dose not given
Method: CF-1 mice, 25-30 g body weight, six animals per group were used. The mice were sensitized to the irritant two weeks prior to the test by dribbling 100 μL of a 3% solution of oxazolone in acetone onto the scrotum of the animal. Test compounds were administered orally at doses of 100 mg/kg and 300 mg/kg for 1 hour prior to oxazolone, intraperitoneally as follows: The test compound was dissolved in dimethyl sulfoxide and doses of 10 mg/kg, 30 mg/kg and 100 mg/kg were injected 15 minutes prior to irritant. The irritant, 3% oxazolone in acetone, was added to the surface of the ear, 5 μl added to the upper surface and 5 μl added to the lower surface. After twenty four hours, the thickness of the ear was measured to 0.01 mm by a micrometer with loose drag, positioned at the lateral-most edge of the mid-point of the pinna. Data were calculated as the inhibition of increased ear thickness compared to control animals' receiving only the irritant. In general, % inhibition of greater than 20% is statistically significant (p<0.05 or less, Student's t-test for unpaired data).

O=C(Nc1ccc(C(=O)O)cc1)OCCC1c2ccccc2-c2ccccc21 [Example 7, N-[9H-(Fluorenyl-9-ethoxycarbonyl)]amino-4-benzoic acid]
activity when taken orally (inflammatory screens): exhibit activity even when taken orally | ED (maximal inhibition) at 100 mg/kg (plasma fibrinogen): 30 mg/kg | ED (maximal inhibition) (plasma fibrinogen; given orally, read-out: dose achieving maximum inhibition of plasma fibrinogen): 3 mg/kg | ED50 [1]: 70 mg/kg | inhibition of increased ear thickness (oxazolone) [2]: 50%

Cc1ccc2c(c1)C(CCOC(=O)Nc1ccc(C(=O)O)cc1)c1cc(C)ccc1-2 [Example 8, N-[9H-(2,7-Dimethylfluorenyl-9-ethoxycarbonyl)]amino-4-benzoic acid]
activity when taken orally (inflammatory screens): exhibit activity even when taken orally | ED (maximal inhibition) at 100 mg/kg (plasma fibrinogen): 100 mg/kg | ED50 [1]: 100 mg/kg

O=C(Nc1ccc(C(=O)O)cc1)OCCC1c2cc(Cl)ccc2-c2ccc(Cl)cc21 [Example 9]
activity when taken orally (inflammatory screens): exhibit activity even when taken orally | ED (maximal inhibition) at 100 mg/kg (plasma fibrinogen): 3 mg/kg | ED50 [1]: 34 mg/kg

O=C(Nc1ccc(C(=O)O)cc1)OC1c2ccccc2-c2ccccc21 [N-(9H-fluorenyl-9-oxycarbonyl)-4-aminobenzoic acid]
activity when taken orally (inflammatory screens): exhibit activity even when taken orally

O=C(Nc1ccc(C(=O)NS(=O)(=O)c2ccccc2)cc1)OCCC1c2ccccc2-c2ccccc21 [N-{[9H-(fluorenyl-9-ethoxycarbonyl)]-4-amino-benzoyl}-benzenesulfonamide]
activity when taken orally (inflammatory screens): exhibit activity even when taken orally
